These results are taken from patent US8461328B2, “Tricyclic heterocyclic compounds, compositions and methods of use thereof” (Genentech, Inc., priority 2010, dated 2013).

What all share (format): biochemical
One assay deals with T1, JAK1 (Homo sapiens, UniProt P23458).
T1 construct: made in house; host or cells: SF9 insect cells (baculovirus)
As to the kind of experiment: JAK1 inhibition (Table 4). As to conditions: read-out: JAK1 Ki.

The next assay addresses T2, JAK2 (Homo sapiens, UniProt O60674).
T2 construct: made in house; host or cells: SF9 insect cells (baculovirus)
Nature of the assay: JAK2 inhibition (Table 4). As to conditions: read-out: JAK2 Ki.

In a further assay the target is T3, JAK3 (Homo sapiens, UniProt P52333).
T3 construct: made in house; host or cells: SF9 insect cells (baculovirus)
Nature of the assay: JAK3 inhibition (Table 4). As to conditions: read-out: JAK3 Ki.

A further assay addresses T4, TYK2 (Homo sapiens, UniProt P29597).
T4 construct: made in house; host or cells: SF9 insect cells (baculovirus)
T4 sequence (P29597 873-1187): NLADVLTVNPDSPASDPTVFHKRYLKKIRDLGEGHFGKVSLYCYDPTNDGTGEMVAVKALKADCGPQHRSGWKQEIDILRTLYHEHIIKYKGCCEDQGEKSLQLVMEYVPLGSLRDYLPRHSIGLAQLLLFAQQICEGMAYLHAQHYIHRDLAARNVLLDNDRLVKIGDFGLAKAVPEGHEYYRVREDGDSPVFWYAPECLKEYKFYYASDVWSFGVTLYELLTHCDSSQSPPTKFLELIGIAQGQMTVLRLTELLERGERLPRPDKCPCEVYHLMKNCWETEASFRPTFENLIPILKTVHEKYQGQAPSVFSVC
As to the kind of experiment: TYK2 inhibition (Table 4).

T3 sequence (P52333 783-1124): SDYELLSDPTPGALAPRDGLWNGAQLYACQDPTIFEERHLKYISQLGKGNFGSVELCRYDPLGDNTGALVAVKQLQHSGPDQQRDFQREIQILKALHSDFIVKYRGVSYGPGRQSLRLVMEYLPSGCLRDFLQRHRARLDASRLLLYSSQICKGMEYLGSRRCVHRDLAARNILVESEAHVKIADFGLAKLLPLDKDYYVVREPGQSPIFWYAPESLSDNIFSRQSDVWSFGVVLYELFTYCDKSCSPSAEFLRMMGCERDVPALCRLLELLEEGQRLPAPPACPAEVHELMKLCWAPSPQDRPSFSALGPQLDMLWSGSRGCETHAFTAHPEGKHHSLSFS
T2 sequence (O60674 812-1132): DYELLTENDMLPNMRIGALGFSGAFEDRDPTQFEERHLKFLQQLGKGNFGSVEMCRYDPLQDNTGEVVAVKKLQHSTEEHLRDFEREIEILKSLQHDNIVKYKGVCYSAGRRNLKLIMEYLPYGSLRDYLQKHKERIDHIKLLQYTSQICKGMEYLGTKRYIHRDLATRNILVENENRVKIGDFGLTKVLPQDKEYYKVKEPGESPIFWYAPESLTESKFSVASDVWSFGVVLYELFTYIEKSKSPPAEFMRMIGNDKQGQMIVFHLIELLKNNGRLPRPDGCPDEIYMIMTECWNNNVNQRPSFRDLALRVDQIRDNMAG
T1 sequence (P23458 852-1154): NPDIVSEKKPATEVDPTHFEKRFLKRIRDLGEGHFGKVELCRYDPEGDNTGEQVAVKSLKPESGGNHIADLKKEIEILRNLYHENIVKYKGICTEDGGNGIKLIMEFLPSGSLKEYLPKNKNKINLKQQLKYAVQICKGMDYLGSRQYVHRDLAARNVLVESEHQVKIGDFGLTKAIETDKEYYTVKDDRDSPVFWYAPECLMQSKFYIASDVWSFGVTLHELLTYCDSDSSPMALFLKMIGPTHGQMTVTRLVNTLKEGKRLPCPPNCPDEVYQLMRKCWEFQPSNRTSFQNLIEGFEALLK

For orientation: Ki means the dissociation constant of the complex between target and ligand, obtained from inhibition or displacement. With `COCC(=O)NCCc1nc2cnc3[nH]ccc3c2n1C1CCCOC1` (racemic) [Example 860, 2-Methoxy-N-{2-[1-(tetrahydro-pyran-3-yl)-1,6-dihydro-1,3,5,6-tetraaza-as-indacen-2-yl]-ethyl}-acetamide], the Ki on JAK1 worked out at 20.2 nM; at JAK2 it was 296 nM; at JAK3 it was 561 nM; on TYK2, 806 nM.
On to `Cc1nc2cnc3[nH]ccc3c2n1[C@H]1CC[C@@H](C(=O)O)CC1` [Example 420, 4-(2-Methyl-6H-1,3,5,6-tetraaza-as-indacen-1-yl)-cyclohexanecarboxylic acid], for which the inhibition constant (Ki) turned out to be 66.2 nM on JAK1, 80.6 nM at JAK2, 39.1 nM on JAK3 and 28.6 nM on TYK2.
On to `N#CCCN1CCC(n2c(CNC(=O)c3ccccn3)nc3cnc4[nH]ccc4c32)CC1` [Example 496, Pyridine-2-carboxylic acid {1-[1-(2-cyano-ethyl)-piperidin-4-yl]-1,6-dihydro-1,3,5,6-tetraaza-as-indacen-2-ylmethyl}-amide], for which the Ki worked out at 2.75 nM on JAK1, 8.05 nM at JAK2, 13.1 nM at JAK3 and 55.7 nM at TYK2.
For `CC(=O)N(C)CCc1nc2cnc3[nH]ccc3c2n1C1CCN(C(C)CC#N)CC1` (racemic) [Example 398, N-(2-{1-[1-(2-Cyano-1-methyl-ethyl)-piperidin-4-yl]-1,6-dihydro-1,3,5,6-tetraaza-as-indacen-2-yl}-ethyl)-N-methyl-acetamide] the same measures were 20.8 nM, 47 nM, 179 nM and 241 nM.
On to `FC(F)(F)c1nc2cnc3[nH]ccc3c2n1C1CCN(Cc2ccccc2)CC1` [Example 167, 1-(1-Benzyl-piperidin-4-yl)-2-trifluoromethyl-1,6-dihydro-1,2,3,5,6-tetraaza-as-indacene], for which the Ki at JAK1 is 10.4 nM; on JAK2 it was 14.1 nM; at JAK3, 6.48 nM; at TYK2, 820 nM.
The corresponding values for `C[C@H](O)c1nc2cnc3[nH]ccc3c2n1C1CCCOC1` (single isomer, unassigned) [Example 462] are 90 nM, 538 nM, 1160 nM and 1370 nM.
For the compound `COCCNC1CCC(n2c(C)nc3cnc4[nH]ccc4c32)C1` (racemic) [Example 628, Racemic trans (2-methoxy-ethyl)-[3-(2-methyl-6H-1,2,3,5,6-tetraaza-as-indacen-1-yl)-cyclopentyl]-amine], the Ki on JAK1 worked out at 43.1 nM; on JAK2 it was 375 nM; at JAK3, 798 nM; on TYK2, 974 nM.
As to `Fc1cccc(CN2CCC(n3cnc4cnc5[nH]ccc5c43)CC2)c1` [Example 67, 1-[1-(3-Fluoro-benzyl)-piperidin-4-yl]-1,6-dihydro-1,3,5,6-tetraaza-as-indacene], the inhibitory constant (Ki) on JAK1 came out at 0.75 nM; at JAK2, 1.16 nM; at JAK3 it was 9.48 nM; on TYK2 it was 23.6 nM.
For `FC1CNCCC1n1nnc2cnc3[nH]ccc3c21` (racemic) [Example 525, 1-(3-Fluoro-piperidin-4-yl)-l,6-dihydro-1,2,3,5,6-pentaaza-as-indacene] the same measures were 12.3 nM, 33.2 nM, 87.6 nM and 96.8 nM.
As for `C[C@@H](O)c1nc2cnc3[nH]ccc3c2n1[C@H]1CC[C@H](OCC#N)CC1` [Example 639, Trans {4-[2-((R)-1-hydroxy-ethyl)-6H-1,2,3,5,6-tetraaza-as-indacen-1-yl]-cyclohexyloxy}-acetonitrile], the inhibition constant Ki on JAK1 was 0.78 nM; on JAK2, 14.4 nM; on JAK3, 58.1 nM; at TYK2 it was 4.04 nM.
Regarding `NC1CCCC(n2cnc3cnc4[nH]ccc4c32)C1` (single isomer, unassigned) [Example 368, 3-(6H-1,3,5,6-Tetraaza-as-indacen-1-yl)-cyclohexylamine], the Ki on JAK1 was 27.8 nM; on JAK2 it was 19.3 nM; at JAK3, 419 nM; on TYK2, 130 nM.
For `CC(CC#N)N1CCC(n2c(CN3CCCC3=O)nc3cnc4[nH]ccc4c32)CC1` (racemic) [Example 399, 3-{4-[2-(2-Oxo-pyrrolidin-1-ylmethyl)-6H-1,3,5,6-tetraaza-as-indacen-1-yl]-piperidin-1-yl}-butyronitrile] the same measures were 33.1 nM, 97.1 nM, 125 nM and 179 nM.
For `Cc1nc2cnc3[nH]ccc3c2n1[C@@H]1CC[C@@H](NCCC#N)C1` [Example 724, 3-[(1R,3R)-3-(2-Methyl-6H-1,3,5,6-tetraaza-as-indacen-1-yl)-cyclopentylamino]-propionitrile], the Ki is 6.27 nM on JAK1, 24.3 nM on JAK2, 16 nM on JAK3 and 78.9 nM at TYK2.
On to `c1cc2c(ncc3ncn(CC4CCNCC4)c32)[nH]1` [Example 255, 1-Piperidin-4-ylmethyl-1,6-dihydro-1,3,5,6-tetraaza-as-indacene], for which the Ki at JAK1 was 278 nM; at JAK2, 490 nM; at JAK3 it was 479 nM; at TYK2, 1120 nM.
The corresponding values for `CNC(=O)Cc1nc2cnc3[nH]ccc3c2n1C1CCCOC1` (racemic) [Example 961, N-Methyl-2-[1-(tetrahydro-pyran-3-yl)-1,6-dihydro-1,3,5,6-tetraaza-as-indacen-2-yl]-acetamide] are 45.6 nM, 333 nM, 316 nM and 438 nM.
With `Cc1cc(CN2CCC(n3c(C(C)O)nc4cnc5[nH]ccc5c43)C(F)C2)no1` (stereo not drawn) [Example 911, 1-{1-[3-Fluoro-1-(5-methyl-isoxazol-3-ylmethyl)-piperidin-4-yl]-1,6-dihydro-1,3,5,6-tetraaza-as-indacen-2-yl}-ethanol], the Ki on JAK1 came out at 3.33 nM; on JAK2 it was 37.7 nM; at JAK3, 5.74 nM; at TYK2, 180 nM.
Regarding `C[C@@H](O)c1nc2cnc3[nH]ccc3c2n1[C@H]1CCCO1` [Example 660, (R)-1-[(R)-1-(Tetrahydro-furan-2-yl)-1,6-dihydro-1,2,3,5,6-tetraaza-as-indacen-2-yl]-ethanol], the Ki at JAK1 was determined as 327 nM; at JAK2, 1220 nM; at JAK3, 1050 nM; on TYK2, 645 nM.
For `CC(C)(C)[S+]([O-])NCc1nc2cnc3[nH]ccc3c2n1C1CCCCC1` (stereo not drawn) [Example 690, 2-Methyl-propane-2-sulfinic acid (1-cyclohyl-1,6-dihydro-1,2,3,5,6-tetraaza-as-indacen-2-ylmethyl)-amide] the same measures were 62.2 nM, 199 nM, 229 nM and 270 nM.
On to `COCCC(=O)N[C@H]1CC[C@H](n2cnc3cnc4[nH]ccc4c32)CC1` [Example 573, trans 3-Methoxy-N-[4-(6H-1,3,5,6-tetraaza-as-indacen-1-yl)-cyclohexyl]-propionamide], for which the Ki worked out at 4.62 nM on JAK1, 10.7 nM at JAK2, 69.5 nM at JAK3 and 91.5 nM on TYK2.
The corresponding values for `CC(CC#N)N1CCC(n2c(CC3CC3)nc3cnc4[nH]ccc4c32)CC1` (racemic) [Example 401, 3-[4-(2-Cyclopropylmethyl-6H-1,3,5,6-tetraaza-as-indacen-1-yl)-piperidin-1-yl]-butyronitrile] are 9.49 nM, 22.8 nM, 35.4 nM and 96.8 nM.
Turning to `CC(=O)NCCc1nc2cnc3[nH]ccc3c2n1[C@@H]1CCCOC1` [Example 865, (R)—N-{2-[1-(Tetrahydro-pyran-3-yl)-1,6-dihydro-1,3,5,6-tetraaza-as-indacen-2-yl]-ethyl}-acetamide], the Ki at JAK1 was 87.8 nM; on JAK2 it was 566 nM; on JAK3 it was 717 nM; on TYK2, 1270 nM.
For `C[C@@H](O)c1nc2cnc3[nH]ccc3c2n1C1(C)CCN(S(C)(=O)=O)CC1` [Example 585, (R)-1-[1-(1-Methanesulfonyl-4-methyl-piperidinyl)-1,6-dihydro-1,2,3,5,6-tetraaza-as-indacen-2-yl]-ethanol] the same measures were 9.46 nM, 63.4 nM, 88.3 nM and 67.3 nM.
The corresponding values for `CC(=O)N(C)CCc1nc2cnc3[nH]ccc3c2n1C1CCN(CCC#N)CC1` [Example 387, N-(2-{1-[1-(2-Cyano-ethyl)-piperidin-4-yl]-1,6-dihydro-1,3,5,6-tetraaza-as-indacen-2-yl}-ethyl)-N-methyl-acetamide] are 15.4 nM, 54.1 nM, 70.3 nM and 350 nM.
In the case of `N#CCC(=O)N1CCC[C@@H](n2c(C(F)(F)F)nc3cnc4[nH]ccc4c32)C1` [Example 302, 3-Oxo-3-[(R)-3-(2-trifluoromethyl-6H-1,3,5,6-tetraaza-as-indacen-1-yl)-piperidin-1-yl]-propionitrile], the Ki on JAK1 was determined as 9.45 nM; at JAK2, 13.7 nM; at JAK3, 66.4 nM; on TYK2, 71.7 nM.
